Earlier results, collected in patent US20120321587A1, “COMPOSITIONS AND METHODS OF USE PERTAINING TO INSECTICIDE” (priority 2009, published 2012).

Test system: aphids
Settings: nymphs and adults

Structure (SMILES): CCCCCCCCCCCCOS(=O)(=O)[O-].[Na+] [sodium lauryl sulfate]
- efficacy in treating aphids: limited efficacy

Structure (SMILES): CCCCCCCCOC(=O)CC(C(=O)OCCCCCCCC)S(=O)(=O)O.[Na] (centres unmarked) [sodium dioctyl sulfosuccinate]
- efficacy in treating aphids: primary compound responsible for the observed insecticidal activity
